Patent publication EP1661584A1, “Use of conjugates of amatoxins and phallotoxins with macromolecules for cancer and inflammation therapy” (Faulstich, Heinz, Dr., priority 2004, dated 2006)

Tests used:
actin = actin binding
Source text: In all cases the macromolecular conjugates were distinctly more toxic to tumor cells (>1000) than the native toxins. Of high importance for this cytotoxic activity is the presence of a disulfide group in the linker moiety between toxin and macromolecule. After uptake into the tumor cells the disulfide group is cleaved by reduction releasing thiopropionyl-aminophalloidin or thiopropionyl-aminophallacidin into cytoplasm.

[1] = target: DNA-dependent RNA polymerase II (Homo sapiens, UniProt P24928+P30876); details: complex between amanitin and RNA polymerase II; cited from earlier work

Substance | actin binding compared with phalloidin (actin) | Kd [1] [nM]
thiopropionyl-aminophalloidin | as tightly as phalloidin itself | 
amanitin |  | 3
